Measured values reported in the supplement of paper PMC10307832.

Assays:
Experiment in all cases: relative viability (nuclei count vs DMSO), 5 days (fraction); higher = more cells survive
[1] = compound: NC(=O)[C@@H](CCC(F)(F)F)N(Cc1ccc(-c2ncon2)cc1F)S(=O)(=O)c1ccc(Cl)cc1 [Avagacestat] + Cc1nc(NC(=O)N2CCC[C@H]2C(N)=O)sc1-c1ccnc(C(C)(C)C(F)(F)F)c1 [Alpelisib] (partner 2 µM)
How it was run: (§1)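 Cells from lung cancer lines were seeded into 1536-well plates and, one day later, dosed by pin tool. Treatments were either a single drug or a fixed dose of an anchor drug with five library-drug doses (not always all listed) in √10 steps. After 5 days, nuclei were stained in a one-step fixation (final 0.05% Triton X-100, 1% formaldehyde, 1 ug/ml Hoechst) and counted on 4× images, and relative viability is the treated-to-vehicle nuclei ratio, as the median of duplicate plates.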

[2] = compound: NC(=O)[C@@H](CCC(F)(F)F)N(Cc1ccc(-c2ncon2)cc1F)S(=O)(=O)c1ccc(Cl)cc1 [Avagacestat] + CC(=O)c1c(C)c2cnc(Nc3ccc(N4CCNCC4)cn3)nc2n(C2CCCC2)c1=O [Palbociclib] (partner 0.5 µM)
How it was run: as §1

[3] = compound: NC(=O)[C@@H](CCC(F)(F)F)N(Cc1ccc(-c2ncon2)cc1F)S(=O)(=O)c1ccc(Cl)cc1 [Avagacestat] + O=C(c1cc(Cc2n[nH]c(=O)c3ccccc23)ccc1F)N1CCN(C(=O)C2CC2)CC1 [Olaparib] (partner 8 µM)
How it was run: as §1

[4] = compound: NC(=O)[C@@H](CCC(F)(F)F)N(Cc1ccc(-c2ncon2)cc1F)S(=O)(=O)c1ccc(Cl)cc1 [Avagacestat] + Nc1nc2[nH]cc(CCc3ccc(C(=O)N[C@@H](CCC(=O)O)C(=O)O)cc3)c2c(=O)[nH]1 [Pemetrexed] (partner 0.2 µM)
How it was run: as §1

Cell Line: NCI-H2085
- relative viability ([1]; first compound 0.08 µM): 1.15
- relative viability ([1]; first compound 0.253 µM): 1.07
- relative viability ([1]; first compound 0.8 µM): 1.08
- relative viability ([1]; first compound 2.53 µM): 1
- relative viability ([1]; first compound 8 µM): 1.05
- relative viability ([2]; first compound 0.08 µM): 0.464
- relative viability ([2]; first compound 0.253 µM): 0.469
- relative viability ([2]; first compound 0.8 µM): 0.478
- relative viability ([2]; first compound 2.53 µM): 0.468
- relative viability ([2]; first compound 8 µM): 0.511
- relative viability ([3]; first compound 0.08 µM): 0.823
- relative viability ([3]; first compound 0.253 µM): 0.833
- relative viability ([3]; first compound 0.8 µM): 0.847
- relative viability ([3]; first compound 2.53 µM): 0.825
- relative viability ([3]; first compound 8 µM): 0.8
- relative viability ([4]; first compound 0.08 µM): 0.856
- relative viability ([4]; first compound 0.253 µM): 0.871
- relative viability ([4]; first compound 0.8 µM): 1.04
- relative viability ([4]; first compound 2.53 µM): 0.902
- relative viability ([4]; first compound 8 µM): 0.861

Cell Line: NCI-H2087
- relative viability ([1]; first compound 0.08 µM): 1.12
- relative viability ([1]; first compound 0.253 µM): 1.26
- relative viability ([1]; first compound 0.8 µM): 1.28
- relative viability ([1]; first compound 2.53 µM): 1.18
- relative viability ([1]; first compound 8 µM): 1.03
- relative viability ([2]; first compound 0.08 µM): 0.228
- relative viability ([2]; first compound 0.253 µM): 0.181
- relative viability ([2]; first compound 0.8 µM): 0.276
- relative viability ([2]; first compound 2.53 µM): 0.223
- relative viability ([2]; first compound 8 µM): 0.231
- relative viability ([3]; first compound 0.08 µM): 0.806
- relative viability ([3]; first compound 0.253 µM): 0.613
- relative viability ([3]; first compound 0.8 µM): 0.884
- relative viability ([3]; first compound 2.53 µM): 0.62
- relative viability ([3]; first compound 8 µM): 0.543
- relative viability ([4]; first compound 0.08 µM): 0.658
- relative viability ([4]; first compound 0.253 µM): 0.651
- relative viability ([4]; first compound 0.8 µM): 0.741
- relative viability ([4]; first compound 2.53 µM): 0.632
- relative viability ([4]; first compound 8 µM): 0.662

Cell Line: NCI-H2126
- relative viability ([1]; first compound 0.08 µM): 0.737
- relative viability ([1]; first compound 0.253 µM): 0.743
- relative viability ([1]; first compound 0.8 µM): 0.747
- relative viability ([1]; first compound 2.53 µM): 0.734
- relative viability ([1]; first compound 8 µM): 0.68
- relative viability ([2]; first compound 0.08 µM): 0.395
- relative viability ([2]; first compound 0.253 µM): 0.355
- relative viability ([2]; first compound 0.8 µM): 0.385
- relative viability ([2]; first compound 2.53 µM): 0.358
- relative viability ([2]; first compound 8 µM): 0.373
- relative viability ([3]; first compound 0.08 µM): 0.921
- relative viability ([3]; first compound 0.253 µM): 0.941
- relative viability ([3]; first compound 0.8 µM): 0.931
- relative viability ([3]; first compound 2.53 µM): 1.03
- relative viability ([3]; first compound 8 µM): 0.873
- relative viability ([4]; first compound 0.08 µM): 0.67
- relative viability ([4]; first compound 0.253 µM): 0.687
- relative viability ([4]; first compound 0.8 µM): 0.698
- relative viability ([4]; first compound 2.53 µM): 0.605
- relative viability ([4]; first compound 8 µM): 0.683
